Measured values taken from ChEMBL document CHEMBL1201862, “PubChem BioAssay data set” (2004).
Calls of active or inactive are those of the source.

Columns and labels:
[1] = biological target: ADP-ribosylation factor GTPase-activating protein 1 (Rattus norvegicus, UniProt Q62848); experiment: Fluorescence polarization-based biochemical high throughput dose response screening assay to identify inhibitors of ADP-ribosylation factor GTPase activating protein 1 (ARFGAP1).; type: functional
Mu-type opioid receptor = Mu-type opioid receptor (Homo sapiens, UniProt P35372); type: functional, cell-based;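 note: U2OS cells with beta-arrestin recruitment to OPRM1 by beta-gal complementation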
[2] = biological target: 5-hydroxytryptamine receptor 2A (Mus musculus, UniProt P35363); type: functional, cell-based;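 note: CHO-K1 cells with tagged receptor and beta-arrestin; agonist potency measured as compound-induced activation of the receptor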
[3] = biological target: Neurotensin receptor type 1 (Homo sapiens, UniProt P30989); type: functional;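 note: Image-based confirmatory dose-response assay measuring agonist activity at NTR1; NTR1-expressing U2OS osteosarcoma cells imaged for beta-arrestin GFP spot formation; agonist potency where compounds increase beta-arrestin recruitment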
[4] = cytotoxicity toward MDA-MB-231 breast cancer cells – cell-based, CellTiter-Glo luminescence, cherry-pick, cytotoxicity control for RAD54 inhibitor project, dose response (AID 651692); type: functional
[5] = biological target: DNA repair and recombination protein RAD54-like (Homo sapiens, UniProt Q92698); experiment: RAD54 Holliday junction migration blockers – biochemical, fluorescence, cherry-picked samples, dose series, confirmation (AID 651657); type: functional
Chain of DNA repair and recombination protein RAD54-like (Q92698 whole entry): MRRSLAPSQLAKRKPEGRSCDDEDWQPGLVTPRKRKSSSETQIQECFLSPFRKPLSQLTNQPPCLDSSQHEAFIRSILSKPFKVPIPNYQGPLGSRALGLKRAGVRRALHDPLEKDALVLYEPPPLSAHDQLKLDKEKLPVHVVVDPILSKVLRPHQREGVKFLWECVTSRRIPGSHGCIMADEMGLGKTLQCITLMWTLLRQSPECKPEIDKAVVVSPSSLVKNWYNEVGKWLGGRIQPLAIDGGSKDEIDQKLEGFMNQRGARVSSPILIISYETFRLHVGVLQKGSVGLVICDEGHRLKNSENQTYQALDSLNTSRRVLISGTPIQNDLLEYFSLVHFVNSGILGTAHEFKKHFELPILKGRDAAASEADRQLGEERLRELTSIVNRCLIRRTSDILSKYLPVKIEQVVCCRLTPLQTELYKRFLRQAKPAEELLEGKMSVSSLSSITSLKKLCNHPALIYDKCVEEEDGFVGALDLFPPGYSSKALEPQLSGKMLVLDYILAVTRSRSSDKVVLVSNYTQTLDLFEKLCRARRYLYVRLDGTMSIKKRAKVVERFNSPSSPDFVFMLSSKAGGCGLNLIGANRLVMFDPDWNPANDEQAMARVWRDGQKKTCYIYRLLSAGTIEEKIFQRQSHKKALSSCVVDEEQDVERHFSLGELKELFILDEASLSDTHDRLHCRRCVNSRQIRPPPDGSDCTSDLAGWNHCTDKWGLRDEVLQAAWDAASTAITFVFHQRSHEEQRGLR

[6] = biological target: DNA (cytosine-5)-methyltransferase 1 (Homo sapiens, UniProt P26358); experiment: inhibition of DNA methylation by DNMT1 – biochemical, fluorescent molecular beacon, confirmation (AID 602386); type: functional
Chain of DNA (cytosine-5)-methyltransferase 1 (P26358 whole entry): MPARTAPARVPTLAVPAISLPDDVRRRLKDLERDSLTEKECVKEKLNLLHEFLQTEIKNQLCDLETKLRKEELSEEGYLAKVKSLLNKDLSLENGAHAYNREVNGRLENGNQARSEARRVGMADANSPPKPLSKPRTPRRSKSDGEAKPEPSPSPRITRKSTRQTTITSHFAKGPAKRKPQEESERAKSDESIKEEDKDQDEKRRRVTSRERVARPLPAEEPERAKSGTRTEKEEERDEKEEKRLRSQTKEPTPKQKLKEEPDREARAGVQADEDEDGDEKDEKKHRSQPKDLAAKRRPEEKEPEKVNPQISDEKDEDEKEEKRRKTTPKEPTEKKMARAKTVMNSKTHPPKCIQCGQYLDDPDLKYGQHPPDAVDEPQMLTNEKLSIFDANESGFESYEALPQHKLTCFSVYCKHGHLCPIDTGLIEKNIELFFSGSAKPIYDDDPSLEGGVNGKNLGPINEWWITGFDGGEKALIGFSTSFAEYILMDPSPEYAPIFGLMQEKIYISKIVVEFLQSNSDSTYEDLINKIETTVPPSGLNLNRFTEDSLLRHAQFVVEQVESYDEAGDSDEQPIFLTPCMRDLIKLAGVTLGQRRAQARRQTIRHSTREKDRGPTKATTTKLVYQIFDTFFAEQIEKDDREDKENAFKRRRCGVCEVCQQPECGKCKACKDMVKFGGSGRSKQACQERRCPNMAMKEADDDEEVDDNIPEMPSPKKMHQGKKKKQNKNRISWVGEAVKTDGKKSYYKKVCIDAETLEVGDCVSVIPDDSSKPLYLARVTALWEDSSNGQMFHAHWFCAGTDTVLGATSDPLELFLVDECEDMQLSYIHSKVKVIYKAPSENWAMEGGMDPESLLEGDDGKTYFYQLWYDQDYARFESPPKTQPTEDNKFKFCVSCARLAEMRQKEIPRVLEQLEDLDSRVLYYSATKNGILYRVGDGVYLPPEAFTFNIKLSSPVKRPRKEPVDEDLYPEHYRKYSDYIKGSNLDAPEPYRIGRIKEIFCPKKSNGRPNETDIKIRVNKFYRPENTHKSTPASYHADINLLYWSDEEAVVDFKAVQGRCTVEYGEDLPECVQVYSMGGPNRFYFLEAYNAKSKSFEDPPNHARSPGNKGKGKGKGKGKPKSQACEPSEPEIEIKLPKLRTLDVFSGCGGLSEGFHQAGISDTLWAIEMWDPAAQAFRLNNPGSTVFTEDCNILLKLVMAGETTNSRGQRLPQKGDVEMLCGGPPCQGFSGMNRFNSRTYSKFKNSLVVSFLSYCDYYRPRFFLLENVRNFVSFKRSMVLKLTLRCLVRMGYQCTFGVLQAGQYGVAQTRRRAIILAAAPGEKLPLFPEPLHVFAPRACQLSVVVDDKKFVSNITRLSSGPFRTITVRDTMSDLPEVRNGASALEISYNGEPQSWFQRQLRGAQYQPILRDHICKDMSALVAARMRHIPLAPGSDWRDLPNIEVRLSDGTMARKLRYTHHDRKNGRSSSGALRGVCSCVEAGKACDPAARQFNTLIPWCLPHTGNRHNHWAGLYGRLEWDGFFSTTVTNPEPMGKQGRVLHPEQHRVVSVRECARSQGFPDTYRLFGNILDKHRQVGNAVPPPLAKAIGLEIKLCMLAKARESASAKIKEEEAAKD

[7] = biological target: T1, Small ubiquitin-related modifier 1 (Homo sapiens, UniProt P63165); experiment: SUMO1 protein-protein binding blockers, potency – biochemical, FRET, dose response (AID 624383); type: functional; conditions: read-out: IC50_Mean
T1 sequence (P63165 whole entry): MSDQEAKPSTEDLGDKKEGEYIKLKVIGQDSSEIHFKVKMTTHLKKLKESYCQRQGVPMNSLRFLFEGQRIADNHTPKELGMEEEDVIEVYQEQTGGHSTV

[8] = biological target: T1, Small ubiquitin-related modifier 1; experiment: SUMO1 protein interaction blockers, potency – biochemical, fluorescence polarization, uHTS hits, dose response (AID 624382); type: functional; conditions: read-out: IC50_Mean
Hexokinase HKDC1 = biological target: T2, Hexokinase HKDC1 (Homo sapiens, UniProt Q2TB90); experiment: inhibition of HKDC1 glucose phosphorylation – biochemical, W721R variant, dose response (AID 504729); type: functional
T2 sequence (Q2TB90 whole entry): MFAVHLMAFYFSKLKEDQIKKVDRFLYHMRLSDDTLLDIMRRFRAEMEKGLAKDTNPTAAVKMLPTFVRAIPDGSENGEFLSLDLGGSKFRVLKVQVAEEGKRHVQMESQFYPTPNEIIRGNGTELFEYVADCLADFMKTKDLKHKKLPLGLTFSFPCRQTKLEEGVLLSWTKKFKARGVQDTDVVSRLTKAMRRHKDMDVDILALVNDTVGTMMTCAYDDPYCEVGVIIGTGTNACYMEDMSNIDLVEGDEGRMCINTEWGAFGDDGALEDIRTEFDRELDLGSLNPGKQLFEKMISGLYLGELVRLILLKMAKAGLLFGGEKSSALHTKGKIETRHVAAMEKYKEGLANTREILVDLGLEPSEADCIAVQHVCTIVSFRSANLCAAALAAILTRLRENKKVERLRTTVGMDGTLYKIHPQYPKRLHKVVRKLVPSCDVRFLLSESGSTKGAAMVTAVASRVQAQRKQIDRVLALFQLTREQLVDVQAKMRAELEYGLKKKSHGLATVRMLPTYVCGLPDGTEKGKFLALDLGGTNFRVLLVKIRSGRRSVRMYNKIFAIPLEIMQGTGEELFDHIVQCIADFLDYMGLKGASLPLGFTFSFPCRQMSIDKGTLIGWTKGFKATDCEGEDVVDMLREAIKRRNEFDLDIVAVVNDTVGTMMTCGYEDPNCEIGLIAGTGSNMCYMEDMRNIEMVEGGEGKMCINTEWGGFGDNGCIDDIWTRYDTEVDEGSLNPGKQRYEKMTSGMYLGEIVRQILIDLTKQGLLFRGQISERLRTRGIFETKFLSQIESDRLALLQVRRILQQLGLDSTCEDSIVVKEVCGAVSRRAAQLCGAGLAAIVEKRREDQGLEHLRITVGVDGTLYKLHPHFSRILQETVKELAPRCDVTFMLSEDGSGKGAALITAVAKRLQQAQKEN

[9] = biological target: Nuclear receptor subfamily 5 group A member 2 (Homo sapiens, UniProt O00482); type: functional, cell-based;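 note: HEK293T cells transfected with LRH-1 and a StAR promoter luciferase reporter; potency for inhibitors that lower LRH-1 driven reporter light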
Chain of Nuclear receptor subfamily 5 group A member 2 (O00482 whole entry): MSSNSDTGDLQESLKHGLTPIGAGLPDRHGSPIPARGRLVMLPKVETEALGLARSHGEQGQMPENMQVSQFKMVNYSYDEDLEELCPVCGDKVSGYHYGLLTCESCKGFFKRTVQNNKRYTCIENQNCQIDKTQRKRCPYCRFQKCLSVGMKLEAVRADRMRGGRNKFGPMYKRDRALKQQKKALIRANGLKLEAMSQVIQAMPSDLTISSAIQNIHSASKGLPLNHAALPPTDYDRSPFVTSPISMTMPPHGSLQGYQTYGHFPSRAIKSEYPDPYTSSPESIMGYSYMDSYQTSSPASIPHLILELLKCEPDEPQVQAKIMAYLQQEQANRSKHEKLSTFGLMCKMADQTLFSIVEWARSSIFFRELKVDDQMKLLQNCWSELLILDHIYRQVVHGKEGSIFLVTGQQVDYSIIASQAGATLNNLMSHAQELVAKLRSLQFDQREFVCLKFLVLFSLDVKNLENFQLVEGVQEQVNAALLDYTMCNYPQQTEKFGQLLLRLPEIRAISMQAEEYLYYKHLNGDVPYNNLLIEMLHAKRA

Steroidogenic factor 1 = Steroidogenic factor 1 (Homo sapiens, UniProt Q13285); experiment: Counterscreen for inverse agonists of the liver receptor homolog-1 (LRH-1; NR5A2): Luminescence-based cell-based high throughput dose response assay to identify inverse agonists of the Steroidogenic Factor 1 Nuclear Receptor (SF1; NR5A1).; type: functional
Chain of Steroidogenic factor 1 (Q13285 whole entry): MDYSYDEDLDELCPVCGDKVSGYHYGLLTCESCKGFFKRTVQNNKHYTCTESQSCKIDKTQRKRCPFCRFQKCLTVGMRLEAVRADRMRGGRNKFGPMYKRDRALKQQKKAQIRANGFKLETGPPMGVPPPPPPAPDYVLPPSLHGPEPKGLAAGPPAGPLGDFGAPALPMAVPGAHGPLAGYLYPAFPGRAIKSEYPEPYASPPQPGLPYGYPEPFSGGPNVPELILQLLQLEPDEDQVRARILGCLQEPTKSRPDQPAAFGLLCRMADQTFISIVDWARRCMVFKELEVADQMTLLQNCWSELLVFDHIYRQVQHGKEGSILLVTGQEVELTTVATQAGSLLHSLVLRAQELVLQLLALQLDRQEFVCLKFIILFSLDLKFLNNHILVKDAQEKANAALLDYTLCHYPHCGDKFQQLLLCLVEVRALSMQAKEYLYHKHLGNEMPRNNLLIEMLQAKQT

[10] = nonselective StAR promoter luciferase inhibitors – cell-based, luminescence, luciferase reporter, counter-screen for LRH-1 inverse agonist project, dose response (AID 651969); type: functional
[11] = biological target: T3, Histone-lysine N-methyltransferase NSD2 (Homo sapiens, UniProt O96028); type: biochemical
T3 sequence (O96028 whole entry): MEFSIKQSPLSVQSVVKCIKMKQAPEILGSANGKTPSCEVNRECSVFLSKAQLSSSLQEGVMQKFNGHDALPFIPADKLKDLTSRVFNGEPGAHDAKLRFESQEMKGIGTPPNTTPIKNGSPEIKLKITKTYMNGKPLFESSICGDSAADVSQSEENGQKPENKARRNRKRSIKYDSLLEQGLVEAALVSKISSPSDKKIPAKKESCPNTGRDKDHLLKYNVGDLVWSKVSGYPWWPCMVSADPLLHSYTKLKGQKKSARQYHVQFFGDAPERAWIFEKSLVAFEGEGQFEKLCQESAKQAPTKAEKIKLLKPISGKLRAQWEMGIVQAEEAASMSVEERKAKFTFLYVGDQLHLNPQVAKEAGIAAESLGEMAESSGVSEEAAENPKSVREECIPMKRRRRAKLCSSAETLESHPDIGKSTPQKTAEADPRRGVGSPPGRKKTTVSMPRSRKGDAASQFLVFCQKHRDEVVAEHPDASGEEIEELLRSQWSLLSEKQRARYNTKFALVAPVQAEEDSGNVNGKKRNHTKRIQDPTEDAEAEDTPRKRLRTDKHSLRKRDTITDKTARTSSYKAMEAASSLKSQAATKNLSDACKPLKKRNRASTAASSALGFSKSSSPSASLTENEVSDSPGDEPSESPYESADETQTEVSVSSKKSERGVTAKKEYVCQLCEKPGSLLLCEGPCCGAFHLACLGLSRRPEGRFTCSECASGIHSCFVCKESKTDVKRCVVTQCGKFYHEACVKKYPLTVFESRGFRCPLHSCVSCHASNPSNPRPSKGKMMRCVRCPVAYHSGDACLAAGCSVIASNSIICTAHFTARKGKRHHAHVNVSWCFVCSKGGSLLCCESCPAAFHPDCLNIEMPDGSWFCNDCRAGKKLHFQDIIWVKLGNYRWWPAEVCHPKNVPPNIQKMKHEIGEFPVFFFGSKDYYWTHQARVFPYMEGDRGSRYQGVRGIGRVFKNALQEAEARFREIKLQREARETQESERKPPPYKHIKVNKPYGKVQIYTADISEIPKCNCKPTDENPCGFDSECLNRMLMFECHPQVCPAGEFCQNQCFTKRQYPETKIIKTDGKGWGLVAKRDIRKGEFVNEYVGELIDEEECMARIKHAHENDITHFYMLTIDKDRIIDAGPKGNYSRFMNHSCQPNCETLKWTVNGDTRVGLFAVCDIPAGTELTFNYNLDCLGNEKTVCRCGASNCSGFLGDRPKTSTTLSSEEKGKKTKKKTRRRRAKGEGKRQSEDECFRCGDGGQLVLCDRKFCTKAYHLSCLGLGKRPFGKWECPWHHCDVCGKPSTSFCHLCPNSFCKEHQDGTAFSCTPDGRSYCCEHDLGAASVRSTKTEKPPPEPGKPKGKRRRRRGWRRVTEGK

[12] = NIH3T3 cell viability loss, ATP content – CellTiter-Glo luminescence, cherry-pick, set 2, cytotoxicity control for HSP40 inhibitor project, dose response (AID 624265); type: functional
Nonstructural protein 1 = Nonstructural protein 1 (Influenza A virus, UniProt Q194T2); type: functional, Influenza A virus (A/California/07/2009(H1N1))
[13] = biological target: T4, Low molecular weight phosphotyrosine protein phosphatase (Homo sapiens, UniProt P24666); type: functional; conditions: read-out: IC50_Mean;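 note: Dose-response confirmation assay measuring inhibition of LMPTP enzyme activity by fluorescence intensity read-out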
T4 sequence (P24666 whole entry): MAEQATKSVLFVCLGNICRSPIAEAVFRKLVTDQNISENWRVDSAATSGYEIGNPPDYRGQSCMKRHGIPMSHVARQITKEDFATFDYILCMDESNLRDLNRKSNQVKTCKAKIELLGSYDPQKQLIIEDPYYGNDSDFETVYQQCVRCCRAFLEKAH

[14] = biological target: Tyrosine-protein phosphatase non-receptor type 11 (Homo sapiens, UniProt Q06124); experiment: PTPN11 enzyme inhibitors – biochemical, selectivity assay for STEP inhibitor project, dose response (AID 602367); type: functional; conditions: read-out: IC50_Mean
Chain of Tyrosine-protein phosphatase non-receptor type 11 (Q06124 whole entry): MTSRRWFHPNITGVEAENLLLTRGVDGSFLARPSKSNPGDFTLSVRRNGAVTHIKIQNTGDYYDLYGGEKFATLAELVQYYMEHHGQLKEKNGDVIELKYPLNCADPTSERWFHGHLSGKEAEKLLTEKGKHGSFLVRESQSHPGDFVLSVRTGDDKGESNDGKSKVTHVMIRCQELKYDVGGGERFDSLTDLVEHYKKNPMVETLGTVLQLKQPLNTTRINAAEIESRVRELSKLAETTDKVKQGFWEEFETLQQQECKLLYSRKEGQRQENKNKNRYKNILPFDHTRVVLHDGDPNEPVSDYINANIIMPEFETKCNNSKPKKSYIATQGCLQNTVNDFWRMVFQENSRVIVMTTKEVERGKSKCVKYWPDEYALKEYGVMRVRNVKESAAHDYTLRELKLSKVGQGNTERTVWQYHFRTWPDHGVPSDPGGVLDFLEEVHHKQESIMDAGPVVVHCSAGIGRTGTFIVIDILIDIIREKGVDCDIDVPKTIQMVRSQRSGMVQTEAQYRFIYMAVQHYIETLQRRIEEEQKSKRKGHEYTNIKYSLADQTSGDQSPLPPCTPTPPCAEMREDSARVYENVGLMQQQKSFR

[15] = biological target: Dual specificity protein phosphatase 3 (Homo sapiens, UniProt P51452); experiment: VHR phosphatase inhibition, dose response, selectivity assay for STEP inhibitor project, biochemical (AID 602374); type: functional; conditions: read-out: IC50_Mean
[16] = biological target: T5, Carboxy-terminal domain RNA polymerase II polypeptide A small phosphatase 1 (Homo sapiens, UniProt Q9GZU7); experiment: CTDSP1 inhibitors, concentration-response, biochemical, absorbance readout, ultra-high-throughput screen actives (AID 540297); type: functional
T5 sequence (Q9GZU7 whole entry): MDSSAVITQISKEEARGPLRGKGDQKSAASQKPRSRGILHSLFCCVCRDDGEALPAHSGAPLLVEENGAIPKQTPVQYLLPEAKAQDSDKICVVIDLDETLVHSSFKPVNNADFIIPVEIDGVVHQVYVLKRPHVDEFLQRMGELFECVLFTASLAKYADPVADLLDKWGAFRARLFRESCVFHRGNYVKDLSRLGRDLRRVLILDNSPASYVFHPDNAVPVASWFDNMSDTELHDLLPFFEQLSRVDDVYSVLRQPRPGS

[17] = biological target: Tyrosine-protein phosphatase non-receptor type 5 (Homo sapiens, UniProt P54829); experiment: PTPN5 enzyme inhibition – biochemical, fluorescence intensity, uHTS hits, confirmation (AID 602372); type: functional; conditions: read-out: IC50_Mean
[18] = biological target: T6, Tyrosine-protein phosphatase non-receptor type 22 (Homo sapiens, UniProt Q9Y2R2); experiment: lymphoid phosphatase LYP inhibitors – biochemical, selectivity assay for STEP inhibitor project, dose response (AID 624241); type: functional
T6 sequence (Q9Y2R2 whole entry): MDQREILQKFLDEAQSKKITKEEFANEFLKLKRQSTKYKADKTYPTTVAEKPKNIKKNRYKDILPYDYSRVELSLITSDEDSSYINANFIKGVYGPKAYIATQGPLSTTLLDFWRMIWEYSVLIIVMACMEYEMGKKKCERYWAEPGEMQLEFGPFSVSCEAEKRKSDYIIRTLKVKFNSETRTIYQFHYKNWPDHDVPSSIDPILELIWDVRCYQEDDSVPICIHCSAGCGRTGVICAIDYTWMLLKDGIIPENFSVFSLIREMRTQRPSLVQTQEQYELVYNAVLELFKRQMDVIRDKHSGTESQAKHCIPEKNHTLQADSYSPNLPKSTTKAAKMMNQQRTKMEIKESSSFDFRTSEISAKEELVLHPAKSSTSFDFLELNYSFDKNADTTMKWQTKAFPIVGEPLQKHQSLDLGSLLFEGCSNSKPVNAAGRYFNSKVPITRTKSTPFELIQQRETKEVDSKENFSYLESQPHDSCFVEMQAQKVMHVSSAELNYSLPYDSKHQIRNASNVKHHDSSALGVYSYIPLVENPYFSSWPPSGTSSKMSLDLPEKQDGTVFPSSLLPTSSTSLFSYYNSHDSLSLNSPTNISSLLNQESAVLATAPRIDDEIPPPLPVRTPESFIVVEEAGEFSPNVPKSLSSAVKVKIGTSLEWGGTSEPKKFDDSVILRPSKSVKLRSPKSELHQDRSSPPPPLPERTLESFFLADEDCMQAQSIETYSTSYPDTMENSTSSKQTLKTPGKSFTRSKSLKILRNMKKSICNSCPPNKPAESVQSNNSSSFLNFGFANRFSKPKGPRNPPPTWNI

[19] = biological target: T7, Protein disulfide-isomerase (Homo sapiens, UniProt P07237); experiment: inhibition of PDI-driven insulin aggregation – biochemical, turbidity, absorbance, cherry-picked samples, dose response (AID 602350); type: functional
T7 sequence (P07237 whole entry): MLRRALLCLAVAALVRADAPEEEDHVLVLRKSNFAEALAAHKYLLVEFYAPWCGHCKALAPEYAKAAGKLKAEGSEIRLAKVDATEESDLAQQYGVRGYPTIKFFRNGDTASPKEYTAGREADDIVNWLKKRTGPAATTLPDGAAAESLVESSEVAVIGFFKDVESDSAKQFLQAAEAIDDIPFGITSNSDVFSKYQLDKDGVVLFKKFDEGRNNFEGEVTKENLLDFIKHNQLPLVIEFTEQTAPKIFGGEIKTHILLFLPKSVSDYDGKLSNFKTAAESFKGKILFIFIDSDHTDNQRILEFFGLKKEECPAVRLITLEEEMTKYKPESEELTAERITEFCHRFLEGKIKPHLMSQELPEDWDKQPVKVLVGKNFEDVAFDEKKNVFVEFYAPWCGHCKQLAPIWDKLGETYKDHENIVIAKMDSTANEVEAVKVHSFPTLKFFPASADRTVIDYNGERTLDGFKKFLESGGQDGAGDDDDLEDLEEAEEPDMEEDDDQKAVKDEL

[20] = biological target: T7, Protein disulfide-isomerase; experiment: inhibition of PDI-mediated insulin reduction – biochemical, turbidity, absorbance, cherry-picked samples, set 2, dose response (AID 624274); type: functional

Chain of ADP-ribosylation factor GTPase-activating protein 1 (Q62848 whole entry): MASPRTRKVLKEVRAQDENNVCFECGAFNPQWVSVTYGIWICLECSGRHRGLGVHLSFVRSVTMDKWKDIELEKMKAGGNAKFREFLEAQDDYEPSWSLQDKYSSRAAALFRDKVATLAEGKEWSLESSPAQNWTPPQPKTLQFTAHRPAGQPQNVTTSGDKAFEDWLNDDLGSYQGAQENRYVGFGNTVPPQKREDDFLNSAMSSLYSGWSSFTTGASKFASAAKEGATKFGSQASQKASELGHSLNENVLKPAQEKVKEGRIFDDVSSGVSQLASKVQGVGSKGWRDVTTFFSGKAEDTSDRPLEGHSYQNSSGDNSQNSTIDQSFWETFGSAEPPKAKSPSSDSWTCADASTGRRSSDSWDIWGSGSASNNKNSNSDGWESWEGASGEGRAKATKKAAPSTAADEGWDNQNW

For COc1ccc(-n2c(SCC(N)=O)nc3sc4c(c3c2=O)CCN(C)C4)cc1, the IC50 [1] was 111 µM (inactive).

With COc1ccc(CN2CCN(c3ncccn3)CC2)c(OC)c1 the EC50 (Mu-type opioid receptor) was 92.5 µM (inactive) and the EC50 [2] was 0.322 µM (active).

In the case of CCOC(=O)c1c(NC(C)=O)sc2c(OCC(O)CN(CC)CC)c(Br)ccc12 (centres undefined), the EC50 [3] is reported as 22.6 µM (inactive), the AC50 [4] is reported as 24.6 µM (active) and the AC50 [5] is reported as 8.3 µM (active).

In the case of O=C(/C=C/c1ccc(Br)cc1)NC(=S)Nc1ccc(S(=O)(=O)Nc2nccs2)cc1, the IC50 [6] is reported as 5.22 µM (active), the IC50 [7] is reported as 3.39 µM (active) and the IC50 [8] is reported as > 66.6 µM (inactive). The IC50 (Hexokinase HKDC1) was 17.3 µM (active).

In the case of CCOc1ccc(NC(=O)CN2CCN(CC(=O)Nc3ccc(OC)cc3)CC2)cc1, the IC50 [9] is reported as 18.1 µM (inactive), the IC50 (Steroidogenic factor 1) is reported as 3.07 µM (active) and the IC50 [10] is reported as 35.9 µM (inactive).

With O=C1c2cccc(Cl)c2C(=O)c2c1cccc2N1CCCC1 the AC50 [11] was 2.51 µM (active), the AbsAC35_uM [12] was 61.52 µM and the IC50 (Nonstructural protein 1) was 8.7 µM (active).

With NC(=O)c1cc2ccccc2o/c1=N\NC(=O)c1ccccc1O the IC50 [13] was 24.2 µM (inactive), the IC50 [14] was 5.39 µM (active) and the IC50 [15] was 1.93 µM (active). The IC50 [16] was 7.89 µM (active), the IC50 [17] was 6.57 µM (active) and the IC50 [18] was 90.7 µM (inactive).

For COc1cccc(/C=N/NC(=O)CNC(=O)c2ccc3c(c2)OCCO3)c1O, the AC50 [19] was < 0.009 µM (active) and the AC50 [20] was 0.009 µM (active).
